Literature values, collected in patent publication US20030073069A1, “Drug rescue by redesign of ADMET/PK properties” (priority 2001, published 2003).
Read-outs that look alike come from different tables or passages of the source.

Tests used:
P450 [1] = tested on: P450
P450 [2] = details: induction of a P450
[3] = FIG. 8
[4] = development for memory enhancement abandoned
CYP 3A4 = CYP 3A4 (Homo sapiens, UniProt P08684); details: indicates a reactive intermediate formed by CYP 3A4 metabolism
CYP 3A4, sequence (P08684 whole entry): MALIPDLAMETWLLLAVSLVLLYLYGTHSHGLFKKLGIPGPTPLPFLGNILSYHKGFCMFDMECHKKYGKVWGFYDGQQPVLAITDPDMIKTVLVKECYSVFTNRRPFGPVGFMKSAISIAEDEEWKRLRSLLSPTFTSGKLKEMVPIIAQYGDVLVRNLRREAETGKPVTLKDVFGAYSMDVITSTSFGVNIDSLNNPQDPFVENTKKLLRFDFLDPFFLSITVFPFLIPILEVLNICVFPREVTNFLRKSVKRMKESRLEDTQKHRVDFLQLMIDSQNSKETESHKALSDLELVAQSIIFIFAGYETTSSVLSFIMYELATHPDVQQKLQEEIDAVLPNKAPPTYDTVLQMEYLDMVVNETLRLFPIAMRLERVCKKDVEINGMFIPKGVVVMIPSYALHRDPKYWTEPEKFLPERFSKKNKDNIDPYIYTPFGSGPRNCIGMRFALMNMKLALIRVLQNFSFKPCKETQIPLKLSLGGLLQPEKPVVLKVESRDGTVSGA

SMILES: CCOC(=O)C1=C(C)NC(C)=C(C(=O)OC)C1c1cccc(Cl)c1Cl (stereo not shown) [felodipine]
- No. of currently known drug interactions that involve the compound, Inhibition (P450 [1]; inhibition of a P450): 1
- No. of currently known drug interactions that involve the compound, Induction (P450 [2]): 4

SMILES: CN(C)Cc1nnc2n1-c1ccc(Cl)cc1C(c1ccccc1)=NC2 [adinazolam]
- bioavailability, experimentally observed [3]: low
- half lives, experimentally observed [3]: short

SMILES: O=C(O)C1N=C(c2ccccc2)c2cc(Cl)ccc2NC1=O (stereo not shown) [clorazepate]
- No. of currently known drug interactions that involve the compound, Inhibition (P450 [1]): 7
- No. of currently known drug interactions that involve the compound, Induction (P450 [2]): 3

SMILES: Cc1nnc2n1-c1ccc(Cl)cc1C(c1ccccc1Cl)=NC2 [triazolam]
- No. of currently known drug interactions that involve the compound, Inhibition (P450 [1]): 15
- No. of currently known drug interactions that involve the compound, Induction (P450 [2]): 3

SMILES: Fc1ccccc1C1=NCC(=S)N(CC(F)(F)F)c2ccc(Cl)cc21 [quazepam]
- No. of currently known drug interactions that involve the compound, Inhibition (P450 [1]): 7
- No. of currently known drug interactions that involve the compound, Induction (P450 [2]): 3

SMILES: C[C@]12C=CC(=O)C=C1CC[C@@H]1[C@@H]2[C@@H](O)C[C@@]2(C)[C@H]1CC[C@]2(O)C(=O)CO [prednisolone]
- No. of currently known drug interactions that involve the compound, Inhibition (P450 [1]; inhibition of a P450): 1
- No. of currently known drug interactions that involve the compound, Induction (P450 [2]): 10

SMILES: NC(=O)N1c2ccccc2C=Cc2ccccc21 [carbamazepine]
- No. of currently known drug interactions that involve the compound, Inhibition (P450 [1]; inhibition of a P450): 3
- No. of currently known drug interactions that involve the compound, Induction (P450 [2]): 9

SMILES: CCC1(c2ccccc2)NC(=O)N(C)C1=O (stereo not shown) [mephenytoin]
- No. of currently known drug interactions that involve the compound, Inhibition (P450 [1]; inhibition of a P450): 4
- No. of currently known drug interactions that involve the compound, Induction (P450 [2]): 2

SMILES: Cc1nnc2n1-c1ccc(Cl)cc1C(c1ccccc1)=NC2 [alprazolam]
- No. of currently known drug interactions that involve the compound, Inhibition (P450 [1]): 15
- No. of currently known drug interactions that involve the compound, Induction (P450 [2]): 3

SMILES: Cc1ncc2n1-c1ccc(Cl)cc1C(c1ccccc1F)=NC2 [midazolam]
- bioavailability, experimentally observed [3]: low
- half lives, experimentally observed [3]: short
- No. of currently known drug interactions that involve the compound, Inhibition (P450 [1]): 15
- No. of currently known drug interactions that involve the compound, Induction (P450 [2]): 3

SMILES: CN(C)CCC=C1c2ccccc2COc2ccccc21 [doxepin]
- No. of currently known drug interactions that involve the compound, Inhibition (P450 [1]; inhibition of a P450): 4
- No. of currently known drug interactions that involve the compound, Induction (P450 [2]): 11

SMILES: CN(C)CCCN1c2ccccc2CCc2ccccc21 [imipramine]
- No. of currently known drug interactions that involve the compound, Inhibition (P450 [1]; inhibition of a P450): 5
- No. of currently known drug interactions that involve the compound, Induction (P450 [2]): 11

SMILES: C[C@H]1C[C@@H]2[C@H]([C@@H](O)C[C@@]3(C)[C@H]2CC[C@]3(O)C(=O)CO)[C@@]2(C)C=CC(=O)C=C12 [methylprednisolone]
- No. of currently known drug interactions that involve the compound, Inhibition (P450 [1]; inhibition of a P450): 1
- No. of currently known drug interactions that involve the compound, Induction (P450 [2]): 14

SMILES: CCCCCNC(=N)N/N=C/c1c[nH]c2ccc(OC)cc12 [tegaserod]
- ability to breach the Blood-Brain-Barrier, as found [4]: not to breach the Blood-Brain-Barrier

SMILES: Cc1ccc(-c2nc3ccc(C)cn3c2CC(=O)N(C)C)cc1 [zolpidem]
- No. of currently known drug interactions that involve the compound, Inhibition (P450 [1]): 2
- No. of currently known drug interactions that involve the compound, Induction (P450 [2]): 2

SMILES: C=CC[C@@H]1/C=C(\C)C[C@H](C)C[C@H](OC)[C@H]2O[C@@](O)(C(=O)C(=O)N3CCCC[C@H]3C(=O)O[C@H](/C(C)=C/[C@@H]3CC[C@@H](O)[C@H](OC)C3)[C@H](C)[C@@H](O)CC1=O)[C@H](C)C[C@@H]2OC [tacrolimus]
- No. of currently known drug interactions that involve the compound, Inhibition (P450 [1]; inhibition of a P450): 4
- No. of currently known drug interactions that involve the compound, Induction (P450 [2]): 3

SMILES: CNCCCN1c2ccccc2CCc2ccccc21 [desipramine]
- No. of currently known drug interactions that involve the compound, Inhibition (P450 [1]; inhibition of a P450): 4
- No. of currently known drug interactions that involve the compound, Induction (P450 [2]): 1

SMILES: O=C1CN=C(c2ccccc2Cl)c2cc([N+](=O)[O-])ccc2N1 [clonazepam]
- No. of currently known drug interactions that involve the compound, Inhibition (P450 [1]): 10
- No. of currently known drug interactions that involve the compound, Induction (P450 [2]): 3

SMILES: CC(CN(C)C)CN1c2ccccc2CCc2ccccc21 (stereo not shown) [trimipramine]
- No. of currently known drug interactions that involve the compound, Inhibition (P450 [1]; inhibition of a P450): 4
- No. of currently known drug interactions that involve the compound, Induction (P450 [2]): 9

SMILES: C=C[C@H]1C[N@@]2CC[C@H]1C[C@@H]2[C@@H](O)c1ccnc2ccc(OC)cc12 [quinidine]
- No. of currently known drug interactions that involve the compound, Inhibition (P450 [1]; inhibition of a P450): 4
- No. of currently known drug interactions that involve the compound, Induction (P450 [2]): 13

SMILES: CN(C)CCCN1c2ccccc2CCc2ccc(Cl)cc21 [clomipramine]
- No. of currently known drug interactions that involve the compound, Inhibition (P450 [1]; inhibition of a P450): 5
- No. of currently known drug interactions that involve the compound, Induction (P450 [2]): 11

SMILES: O=C1CC2(CCCC2)CC(=O)N1CCCCN1CCN(c2ncccn2)CC1 [buspirone]
- No. of currently known drug interactions that involve the compound, Induction (P450 [2]): 2

SMILES: O=C1NC(=O)C(c2ccccc2)(c2ccccc2)N1 [phenytoin]
- No. of currently known drug interactions that involve the compound, Inhibition (P450 [1]; inhibition of a P450): 4
- No. of currently known drug interactions that involve the compound, Induction (P450 [2]): 1

SMILES: CN1CCN(C2=Nc3cc(Cl)ccc3Nc3ccccc32)CC1 [clozapine]
- No. of currently known drug interactions that involve the compound, Inhibition (P450 [1]; inhibition of a P450): 2
- No. of currently known drug interactions that involve the compound, Induction (P450 [2]): 1

SMILES: C[C@@H]1C[C@H]2[C@@H]3CCC4=CC(=O)C=C[C@]4(C)[C@@]3(F)[C@@H](O)C[C@]2(C)[C@@]1(O)C(=O)CO [dexamethasone]
- No. of currently known drug interactions that involve the compound, Induction (P450 [2]): 14

SMILES: COC(=O)C1=C(C)NC(C)=C(C(=O)OCC(C)C)C1c1ccccc1[N+](=O)[O-] (stereo not shown) [nisoldipine]
- No. of currently known drug interactions that involve the compound, Inhibition (P450 [1]; inhibition of a P450): 3
- No. of currently known drug interactions that involve the compound, Induction (P450 [2]): 4

SMILES: CC(C)c1nc(CN(C)C(=O)N[C@H](C(=O)N[C@@H](Cc2ccccc2)C[C@H](O)[C@H](Cc2ccccc2)NC(=O)OCc2cncs2)C(C)C)cs1 [ritonavir]
- No. of currently known drug interactions that involve the compound, Induction (P450 [2]): 3

SMILES: C[C@]12CCC(=O)C=C1CC[C@@H]1[C@@H]2[C@@H](O)C[C@@]2(C)[C@H]1CC[C@]2(O)C(=O)CO [hydrocortisone]
- No. of currently known drug interactions that involve the compound, Inhibition (P450 [1]; inhibition of a P450): 1
- No. of currently known drug interactions that involve the compound, Induction (P450 [2]): 14

SMILES: Cc1c(C)c2c(c(C)c1O)CCC(C)(COc1ccc(CC3SC(=O)NC3=O)cc1)O2 (stereo not shown) [troglitazone]
- inhibition of CYP 3A4 (CYP 3A4): time and NADPH-dependent inhibition

SMILES: CCN(CC)CCN1C(=O)CN=C(c2ccccc2F)c2cc(Cl)ccc21 [flurazepam]
- No. of currently known drug interactions that involve the compound, Inhibition (P450 [1]): 7
- No. of currently known drug interactions that involve the compound, Induction (P450 [2]): 3

SMILES: COc1ccc2c(c1)[C@]13CCCC[C@@H]1[C@H](C2)N(C)CC3 [detromethorphan]
- No. of currently known drug interactions that involve the compound, Induction (P450 [2]): 1

SMILES: CN(C)CCC=C1c2ccccc2CCc2ccccc21 [amitriptyline]
- No. of currently known drug interactions that involve the compound, Inhibition (P450 [1]; inhibition of a P450): 5
- No. of currently known drug interactions that involve the compound, Induction (P450 [2]): 11

SMILES: CC(=O)CC(c1ccccc1)c1c(O)c2ccccc2oc1=O (stereo not shown) [warfarin]
- No. of currently known drug interactions that involve the compound, Inhibition (P450 [1]; inhibition of a P450): 12
- No. of currently known drug interactions that involve the compound, Induction (P450 [2]): 2

SMILES: CNCCC=C1c2ccccc2CCc2ccccc21 [nortriptyline]
- No. of currently known drug interactions that involve the compound, Inhibition (P450 [1]; inhibition of a P450): 4
- No. of currently known drug interactions that involve the compound, Induction (P450 [2]): 11

SMILES: O=C1CN=C(c2ccccc2)c2cc(Cl)ccc2N1CC(F)(F)F [halazepam]
- No. of currently known drug interactions that involve the compound, Inhibition (P450 [1]): 7
- No. of currently known drug interactions that involve the compound, Induction (P450 [2]): 3

SMILES: CC(C)Nc1cccnc1N1CCN(C(=O)c2cc3cc(NS(C)(=O)=O)ccc3[nH]2)CC1 [delavirdine]
- No. of currently known drug interactions that involve the compound, Induction (P450 [2]): 2

SMILES: CC[C@H]1OC(=O)[C@H](C)[C@@H](O[C@H]2C[C@@](C)(OC)[C@@H](O)[C@H](C)O2)[C@H](C)[C@@H](O[C@@H]2O[C@H](C)C[C@H](N(C)C)[C@H]2O)[C@](C)(OC)C[C@@H](C)C(=O)[C@H](C)[C@@H](O)[C@]1(C)O [clarithromycin]
- No. of currently known drug interactions that involve the compound, Inhibition (P450 [1]; inhibition of a P450): 1
- No. of currently known drug interactions that involve the compound, Induction (P450 [2]): 1

SMILES: CNC1=Nc2ccc(Cl)cc2C(c2ccccc2)=[N+]([O-])C1 [chlordiazepoxide]
- No. of currently known drug interactions that involve the compound, Inhibition (P450 [1]): 7
- No. of currently known drug interactions that involve the compound, Induction (P450 [2]): 3

SMILES: Clc1ccc2c(c1)C(c1ccccc1)=NCc1nncn1-2 [estazolam]
- No. of currently known drug interactions that involve the compound, Inhibition (P450 [1]): 7
- No. of currently known drug interactions that involve the compound, Induction (P450 [2]): 3
